Like-named read-outs stand apart in the source and are kept apart here.
Columns and labels:
[1] = test system: U87MG cells; assay: Cell proliferation assay for U87MG cells; assay type: cell-based
Method: (§1) The adult glioblastoma cell line U87MG was obtained from a commercial source (ATCC). The pancreatic cancer cell line PANC-1 was obtained from a local laboratory (Indiana University). Both lines were grown in Iscove's Modified Dulbecco's Medium with 10% fetal bovine serum (FBS) at 37° C. and 5% CO2.
(§2) Compounds (1), (2), (3), (4), and (5), which are shown and described above, were each dissolved in ethanol at 10 mg/mL. A measured portion of the solution was pipetted into a microcentrifuge tube. Then, the ethanol was evaporated from each tube using a SpeedVac®, leaving just the compound in the tube. The appropriate amount of chloroform was added to the tube to produce a 0.1 M concentration. The solutions were placed on ice and in the dark so they could be pipetted into 10- and 20-μL aliquots in 1.5 mL microcentrifuge tubes. The solutions were frozen at […] with lids closed tightly and the tubes covered with foil.
(§3) Prior to treating the cells, a tube of the test compound was removed from the freezer and placed under a biosafety hood to evaporate the chloroform in the tubes. Then, dimethyl sulfoxide (DMSO) was added to the tubes to make the correct concentration to use in the experiment (0.1 M stock). The tubes were vortexed, and warm media with 10% FBS was slowly added to make the correct working concentrations to be used in the experiment. The compounds were directly added to each well for treatment.
(§4) U87MG cells were seeded in a 24-well plate, 5000 cells per well, and incubated overnight at 37° C. in serum-free media. The next day they were treated in triplicate with 50 and 100 μM of each test compound (1), (2), (3), (4), and (5) and the reference compound FTS. After five days, the cells were trypsinized (0.5%), stained with trypan blue, and counted to determine the cell number per well. The half-maximal inhibitory concentration (IC50) values were calculated using Multiplex Reader-Fit software made by MiraiBio Group, Hitachi Solutions America, Ltd. In a typical experiment, the control wells averaged 138,000 cells. The results are presented graphically in FIG. 1. The test compounds at 50 μM allowed the following U87MG cell proliferation compared to control: compound (1)—37%, compound (2)—18%, compound (3)—10%, compound (4)—40%, and compound (5)—0%. The reference compound FTS at 50 μM allowed 7% cell proliferation compared to control.
To further evaluate compounds (3) and (5), which inhibited the most cell growth in FIG. 1, more U87MG cells were seeded in 24-well plates, 5000 cells per well, and incubated overnight at 37° C. in serum-free media. The cells were treated the next morning in media with 5% serum in triplicate with standard concentrations of 6.25, 12.5, 25, and 50 μM of each test compound (3) and (5) and the reference compound FTS. After five days of treatment, the cells were trypsinized (0.5%) and then stained with trypan blue. Cells were counted to determine the number of cells per well. Again, the IC50 values were calculated using Multiplex Reader-Fit software made by MiraiBio Group, Hitachi Solutions America, Ltd. In a typical experiment, the control wells averaged 56,000 cells. The results are presented graphically in FIG. 2. The test compounds at 25 μM allowed the following U87MG cell proliferation compared to control: compound (3)—69% and compound (5)—0%. The reference compound FTS at 25 μM allowed over 50% cell proliferation compared to control.
Since the doses of compound (5) used above killed all of the cells, the dose curve was set up again using even lower doses of compound (5). U87MG cells were seeded in 24-well plates, 5000 cells per well, and incubated overnight at 37° C. in serum-free media. The cells were treated in triplicate with 6.25, 12.5, 25, and 50 μM of the reference compound FTS and 0.3125, 0.625, 1.25, 2.5, and 5.0 μM of the test compound (5) in media with 5% serum for five days. Then, the cells were trypsinized (0.5%) and stained with trypan blue, and the cell number per each well was determined. […]

[2] = test system: ST88-14 cells; assay: IC50 assay with ST88-14 MPNST cells; assay type: cell-based, human; settings: 0.1 to 50 μM, two separate experiments, read-out: half-maximal effects on cell viability
Method: as §4
IC50 assays similar to Example 6 above were performed with ST88-14 cells derived from a MPNST removed from a patient who had NF-1. The cells have loss-of-function mutations in both copies of the NF-1 gene, neurofibromin, which is discussed further above. ST88-14 cells were grown in concentrations of compound (5) ranging from 0.1 to 50 μM in two separate experiments. […]

[3] = test system: USPC1 cells; assay: IC50 assay with USPC1 endometrial cancer cells; assay type: cell-based; settings: 1 to 50 μM, read-out: half-maximal inhibition of viability
Method: as §4
ECC1 (well differentiated) and USPC1 (poorly differentiated) endometrial cancer cells were subjected to IC50 assays similar to Example 6 above. The cells were grown in concentrations of compound (5) ranging from 1 to 50 μM.

[4] = test system: PANC-1 cells; assay: Cell proliferation assay for PANC-1 cells; assay type: cell-based; settings: 1.25 μM, media with 5% serum, five days (FIG. 3)
Method: as §1, §2, §3
The cells were treated in triplicate with standard concentrations of 6.25, 12.5, 25, 50, and 100 μM of each test compound (3) and (5) and the reference compound FTS and, when needed, concentrations of 0.625, 1.25, 2.5 and 5.0 μM in media with 5% serum for five days. Then, the cells were stained with trypan blue, and the cell number per each well was determined. Again, the IC50 values were calculated using Multiplex Reader-Fit software made by MiraiBio Group, Hitachi Solutions America, Ltd. In a typical experiment, the control wells averaged 32,500 cells. The results are presented graphically in FIG. 3. […]

[5] = test system: MCF-7 cells; assay: IC50 assay with MCF-7 breast cancer cells; assay type: cell-based; settings: Homo sapiens, MCF7, 0.6 to 10 μM, read-out: half-maximal decrease in viability
Method: as §4
MCF-7 breast cancer cells, which harbor an activating “K-Ras variant” mutation, were subjected to an IC50 assay similar to Example 6 above. This “K-Ras variant” mutation is in a site that a microRNA binds to, destabilizing the mRNA that encodes Ras. […] MCF-7 cells were grown in concentrations of compound (5) ranging from 0.6 to 10 μM.

In the case of `CC(C)=CCC/C(C)=C/CC/C(C)=C/CSc1ccccc1C1=NCCN1` [compound (5), 2-(2-{[(2E,6E)-3,7,11-trimethyldodeca-2,6,10-trien-1-yl]sulfanyl}phenyl)-4,5-dihydro-1H-imidazole], the “U87MG cell proliferation compared to control” value ([1]; 2.5 μM, media with 5% serum, five days (FIG. 2)) is reported as 56%, the “U87MG cell proliferation compared to control” value ([1]; 25 μM, media with 5% serum, five days (FIG. 2)) is reported as 0% and the “U87MG cell proliferation compared to control” value ([1]; 50 μM, five days, trypan blue cell count (FIG. 1)) is reported as 0%. The IC50 ([1]; Homo sapiens, U-87 MG, value quoted in Example 7, read-out: IC50 as determined on the U87MG cells) was 2.5 µM, the IC50 ([2]; Homo sapiens, ST88-14, ST88-14 cells) was 5.5 µM and the IC50 ([2]; ST88-14 cells) was 6.6 µM. For the same compound, the IC50 [3] was 2 µM, the “PANC-1 cell proliferation compared to control” value [4] was 56% and the IC50 [5] was 2 µM.
